Results as given in US9737596B2, “Vaccine for the prevention of breast cancer recurrence” (The Henry M. Jackson Foundation for the Advancement of …, priority 2008, dated 2017).

Experiments:
[1] = test system: GP2-specific CD8+ T-lymphocytes; test: Phase II trial: HLA-A2:Immunoglobulin dimer assay, GP2-specific CD8+ T-lymphocytes; format: in vivo, human
Experimental: (§1) Disease-free, high risk breast cancer patients who have completed standard adjuvant therapy were enrolled at multiple sites and randomized to receive six monthly inoculations of either 500 mcg of GP2 with 125 mcg of GM-CSF (Peptide group; PG) or 125 mcg of GM-CSF alone (adjuvant group; AG). Toxicity was assessed after each inoculation. Immunologic response was monitored by measured delayed type hypersensitivity reactions (DTH) and an HLA-A2:Immunoglobulin dimer assay to detect GP2-specific CD8^+ T-lymphocytes. Patients were monitored clinically, radiographically, and pathologically for recurrence.

[2] = test system: disease-free, high risk breast cancer patients; test: Phase II trial: DTH reaction to GP2; format: in vivo, human
Experimental: as §1

[3] = test system: disease-free, high risk breast cancer patients; test: Phase II trial: toxicity; format: in vivo, human; conditions: six monthly inoculations
Experimental: as §1

[4] = test system: disease-free, high risk breast cancer patients; test: Phase II trial: breast cancer recurrence; format: in vivo, human; conditions: median follow up of 17.9 months, preliminary data
Experimental: as §1

HLA-A2 molecule = conditions: cited from earlier work

| Substance | % GP2-specific CD8+ lymphocytes ([1]; 6 months after completion of the primary series) | % GP2-specific CD8+ lymphocytes ([1]; baseline) | patients with significant immunity (SI) by DTH (reaction larger than 1 cm) ([2]; post-vaccination) | Median DTH reaction to GP2 ([2]; post-vaccination (after completion of primary series)) | Median DTH reaction to GP2 ([2]; pre-vaccination) | grade 3-5 systemic toxicities [3] | grade 4-5 local toxicities [3] | recurrence rate [4] | binding affinity for the HLA-A2 molecule (HLA-A2 molecule) |
| --- | --- | --- | --- | --- | --- | --- | --- | --- | --- |
| GM-CSF: granulocyte macrophage-colony stimulating factor, 125 mcg alone, control adjuvant group of phase II trial | 1.41±0.49% | 1.08±0.16% | 45.5% | 0.5±3.3 cm | 0.0±1.0 cm | no grade 3-5 systemic toxicities | no grade 4-5 local toxicities | 13% |  |
| IISAVVGIL (listed as Homo sapiens) [GP2, nine amino acid peptide from the transmembrane portion of HER2/neu, amino acids 654-662] |  |  |  |  |  |  |  |  | relatively poor binding affinity |
